Experimental data taken from PubChem BioAssay (NCI).
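48-hour exposure; five concentrations; linearly interpolated endpoints. TGI: concentration producing complete growth inhibition.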

Columns and labels:
Assay in all cases: NCI tumour cell line growth inhibition, 48 h
UACC-62 melanoma = system: UACC-62 melanoma
OVCAR-8 ovarian = system: OVCAR-8 ovarian
HL-60(TB) leukemia = system: HL-60(TB) leukemia
HT29 colon = system: HT29 colon
SK-MEL-2 melanoma = system: SK-MEL-2 melanoma
M19-MEL melanoma = system: M19-MEL melanoma
CAKI-1 renal = system: CAKI-1 renal
COLO 205 colon = system: COLO 205 colon
TK-10 renal = system: TK-10 renal
K-562 leukemia = system: K-562 leukemia
SF-268 CNS = system: SF-268 CNS
SK-MEL-28 melanoma = system: SK-MEL-28 melanoma
OVCAR-3 ovarian = system: OVCAR-3 ovarian
A498 renal = system: A498 renal
MOLT-4 leukemia = system: MOLT-4 leukemia
IGROV1 ovarian = system: IGROV1 ovarian
DLD-1 colon = system: DLD-1 colon
DMS 114 small cell lung = system: DMS 114 small cell lung
HCT-15 colon = system: HCT-15 colon
HCT-116 colon = system: HCT-116 colon
SNB-75 CNS = system: SNB-75 CNS
OVCAR-5 ovarian = system: OVCAR-5 ovarian
HOP-62 NSCLC = system: HOP-62 NSCLC
SK-OV-3 ovarian = system: SK-OV-3 ovarian
NCI-H522 lung = system: NCI-H522 lung
786-0 renal = system: 786-0 renal
LXFL 529 NSCLC = system: LXFL 529 NSCLC
ACHN renal = system: ACHN renal
SNB-19 CNS = system: SNB-19 CNS
SNB-78 CNS = system: SNB-78 CNS
EKVX NSCLC = system: EKVX NSCLC
SK-MEL-5 melanoma = system: SK-MEL-5 melanoma
HCC-2998 colon = system: HCC-2998 colon
KM20L2 colon = system: KM20L2 colon
A549 NSCLC = system: A549 NSCLC
NCI-H23 lung = system: NCI-H23 lung
UO-31 renal = system: UO-31 renal
UACC-257 melanoma = system: UACC-257 melanoma
U251 CNS = system: U251 CNS
DMS 273 small cell lung = system: DMS 273 small cell lung
SN12C renal = system: SN12C renal
SF-295 CNS = system: SF-295 CNS
M14 melanoma = system: M14 melanoma
SR leukemia = system: SR leukemia
RPMI-8226 leukemia = system: RPMI-8226 leukemia
SW-620 colon = system: SW-620 colon
LOX IMVI melanoma = system: LOX IMVI melanoma
KM12 colon = system: KM12 colon
OVCAR-4 ovarian = system: OVCAR-4 ovarian
SF-539 CNS = system: SF-539 CNS
NCI-H460 lung = system: NCI-H460 lung
XF 498 CNS = system: XF 498 CNS
NCI-H226 lung = system: NCI-H226 lung
HOP-92 NSCLC = system: HOP-92 NSCLC
MALME-3M melanoma = system: MALME-3M melanoma
RXF 393 renal = system: RXF 393 renal
CCRF-CEM leukemia = system: CCRF-CEM leukemia

Measured: TGI

[N-]=[N+]=Nc1ccccc1Oc1ccccc1
not listed: HOP-92 NSCLC | MALME-3M melanoma | RXF 393 renal | CCRF-CEM leukemia
> 100 µM: all other assays above

COC(=O)c1cc(OC(C)=O)c2c(OC)ccc(OC)c2c1
not listed: HL-60(TB) leukemia | SF-268 CNS | A498 renal | HOP-62 NSCLC | NCI-H522 lung | SNB-19 CNS | HCC-2998 colon | UO-31 renal | LOX IMVI melanoma | CCRF-CEM leukemia
> 100 µM: all other assays above

C=CC1(CC)/C(=N\O)C(CC)(CC)C(=O)N1O (stereo unspecified)
not listed: SF-268 CNS
> 100 µM: all other assays above
